Assay results as given in US20240150286A1, “PEROXISOME PROLIFERATOR-ACTIVATED RECEPTOR GAMMA (PPARy) LIGANDS AND METHODS OF USE AS TREATMENTS FOR INSULIN RESISTANCE, OBESITY, FATTY LIVER DISEASE, AND TYPE 2 DIABETES” (The Board of Regents of the University of Oklahoma, priority 2022, published 2024).

Key:
[1] = tested on: PPARγ S273 phosphorylation; experiment: PPARγ S273 phosphorylation and phosphorylation-dependent genes in 3T3-L1 differentiated adipocytes; assay type: cell-based, mouse; conditions: 3T3-L1 differentiated adipocytes, TNFα 10 ng/ml 1 h, compounds at 10 μM, Western blot
Experimental: (§1) Total RNA (2 μg) was isolated from tissues or cells using TRIzol reagents (Life Technologies) and reverse transcribed using oligo d(T) primers (New England Biosystems) and SuperScript IV reverse transcription kit (Applied Biosystems). qPCR was performed in a CFX96 Touch Real-Time PCR detection system using SYBR Green mix (Applied Biosystems). The amplification program was as follows: initial denaturation at 95° C. for 15 min, followed by 40 cycles of 95° C. for 15 s, 60° C. for 1 min, and 40° C. for 30 s. Relative mRNA expression was determined by the ΔΔCt method normalized to TBP mRNA.

human PPARγ2 = target: T1, human PPARγ2 (Homo sapiens, UniProt P37231); experiment: PPARγ transactivation reporter assay (3×PPRE-luc) in HEK-293 cells; assay type: cell-based; conditions: HEK293, PPARγ2 + 3×PPRE-luc, relative to Rosi
T1 construct: host or cells: HEK-293
T1 sequence (P37231 1-505): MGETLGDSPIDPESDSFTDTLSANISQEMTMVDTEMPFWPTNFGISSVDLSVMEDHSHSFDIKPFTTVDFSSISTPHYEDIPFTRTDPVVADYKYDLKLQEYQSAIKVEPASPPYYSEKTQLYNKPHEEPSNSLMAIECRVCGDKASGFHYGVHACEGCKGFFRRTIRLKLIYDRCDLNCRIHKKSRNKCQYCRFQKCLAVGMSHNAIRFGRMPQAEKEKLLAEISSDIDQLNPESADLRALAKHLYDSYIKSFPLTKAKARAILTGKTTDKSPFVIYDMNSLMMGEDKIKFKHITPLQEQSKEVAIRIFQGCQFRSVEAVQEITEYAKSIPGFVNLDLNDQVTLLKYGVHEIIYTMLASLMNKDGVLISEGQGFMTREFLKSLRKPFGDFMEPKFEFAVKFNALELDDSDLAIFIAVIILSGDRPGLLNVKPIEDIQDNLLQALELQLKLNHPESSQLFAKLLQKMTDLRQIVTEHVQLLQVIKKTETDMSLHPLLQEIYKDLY
Experimental: HEK-293 cells were seeded overnight, co-transfected with plasmids expressing human PPARγ2 and 3×PPRE-luc (both from Addgene) followed by incubation for 16 h, and then re-seeded in a 384-well plate and incubated for 24 h. Compounds were added and then incubated another 24 h. Luciferase activity was analyzed in each well using Bright-Glo Luciferase kit (Promega).

PPARγ = target: T2, PPARγ (Homo sapiens, UniProt P37231); conditions: cited from earlier work
T2 sequence (P37231 1-505): T1 sequence (P37231 1-505)

[2] = tested on: diet-induced obesity (DIO) mice; experiment: TZD-associated side effects in DIO mice (PCV, heart weight, cardiac and bone genes); assay type: in vivo, mouse
Experimental: C57BL/6J male mice were obtained from Jackson laboratory (Bar Harbor, ME) and maintained on a 12 h light (6:00 AM to 6:00 PM)—12 h dark (6:00 PM to 6:00 AM) cycle at an ambient temperature of 22±1° C. All animals had access to diet and water ad libitum. All procedures involving animals were approved by the Institutional Animal Care and Use Committee of the University of Oklahoma Health Science Center. All experiments were performed with age-matched male mice. The mice were fed a high-fat diet (HFD) (60% kcal fat, Bio-Serv, NJ, USA) starting from the age of 6 weeks until study end. […] Food intake was determined manually by measuring the amount of input food subtracting the amount of the food remaining in the food hopper and the crumbs on the bedding of the cage each day for three days during the 4th week of the treatment. Packed cell volume (PCV) was measured with blood drawn from tail on a LW Scientific E8 centrifuge (LW Scientific, Lawrenceville, Georgia, USA) microhematocrit centrifuge at the end of study. For all other measurements, the blood was drawn at the time of euthanization.
as §1

Row | Structure (SMILES) | S273 phosphorylation of PPARγ [1] | 3×PPRE-luc reporter activity as % of potency of Rosi (human PPARγ2) | PPARγ binding affinity (literature) (PPARγ) | PPARγ phosphorylation at S273 (literature) (PPARγ) | mRNA levels of bone formation genes (Bglap, SPP1, ColA1) ([2]; 4-week treatment) | heart weight ([2]; relative to vehicle) | mRNA levels of Myh7 and Nppb in heart ([2]; vs vehicle)
1 | Cc1c(C)n(Cc2ccc(-c3ccccc3C(=O)O)cc2)c2ccc(C(=O)NCc3cccnc3)cc12 [UHC1, 4′ -((2,3-Dimethyl-5-(pyridine-3-ylmethylcarboamyl)-1H-indol-1-yl)methyl)biphenyl-2-carboxylic acid, reference compound] | significantly inhibited | approximately 45% | poor | inhibit |  |  | 
2 | CN(CCOc1ccc(CC2SC(=O)NC2=O)cc1)c1ccccn1 (stereo not shown) [Rosi, rosiglitazone, reference compound] |  |  |  |  | decreased their expression significantly | significant increase | increased
